In publication PMC5712521, “Dendrogenin A drives LXR to trigger lethal autophagy in cancers” (Nature Communications, 2017):
Where a SMILES comes first, the peptide text is derived from it. The star is where a group is joined. Cbz = O=C(OCc1ccccc1)*; CH2F = FC*

How the values were obtained:
AML cells = assay: Immunoblot of caspase-3 and PARP in AML cells; type: cell-based, human; conditions: 50 µM z-VAD-fmk alone (0 µM DDA), 24 h
Experimental: Immunoblotting was carried out as described previously. Proteins were separated on SDS-PAGE gels, electro-transferred onto polyvinylidene difluoride membranes and incubated overnight at 4 °C with the following antibodies: anti-Atg3, anti-Atg5 (D1G9), anti-Atg7 (D12B11), anti-Beclin (D40C5), anti-caspase-3 (Cell Signaling), anti-Bcl-2 (Millipore), anti-Bax (Millipore), anti-LC3 (Sigma-Aldrich), anti-LXRα (SantaCruz), anti-LXRβ (SantaCruz), anti-Nur77 (Active motif), anti-NOR1 (R&D systems), anti-PARP (Cell Signaling), anti-Vps34 (Cell Signaling), or anti-Actin (Millipore). For visualization, an ECL plus kit (Amersham Biosciences) was used, and chemiluminescence was measured by autoradiography (Supplementary Fig. 9). Specific bands were quantified with ImageQuant software.
Supplementary Fig. 6. […]
AML cells treated with DDA for 24 h in the absence or presence of 50 µM z- VAD-fmk (a
caspase inhibitor). j Effect of z-VAD-fmk on DDA-induced c ytotox icit y in KG1 and HL60 cells. […]
Images are
representative of 3 independent experim ents.

[1] = molecular target: T1, human liver-X-receptor LXRα (Homo sapiens, UniProt Q13133); assay: LXRE-luciferase gene reporter assay in HEK293T, LXRα; type: cell-based; conditions: DDA analogs
T1 construct: expressed in transfected cells; host or cells: HEK293T
T1 sequence (Q13133 1-447): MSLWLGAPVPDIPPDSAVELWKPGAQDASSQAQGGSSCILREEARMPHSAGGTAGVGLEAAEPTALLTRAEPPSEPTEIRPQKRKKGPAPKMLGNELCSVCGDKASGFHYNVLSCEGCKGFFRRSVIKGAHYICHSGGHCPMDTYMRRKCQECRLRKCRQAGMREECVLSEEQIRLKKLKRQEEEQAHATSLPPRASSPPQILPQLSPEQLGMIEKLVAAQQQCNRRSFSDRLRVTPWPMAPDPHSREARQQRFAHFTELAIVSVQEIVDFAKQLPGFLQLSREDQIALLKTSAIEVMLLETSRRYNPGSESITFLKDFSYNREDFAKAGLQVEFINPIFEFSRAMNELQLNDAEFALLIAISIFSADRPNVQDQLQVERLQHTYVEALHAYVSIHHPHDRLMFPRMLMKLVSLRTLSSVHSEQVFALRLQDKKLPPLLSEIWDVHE
T1 sequence (P48443 1-463 partner): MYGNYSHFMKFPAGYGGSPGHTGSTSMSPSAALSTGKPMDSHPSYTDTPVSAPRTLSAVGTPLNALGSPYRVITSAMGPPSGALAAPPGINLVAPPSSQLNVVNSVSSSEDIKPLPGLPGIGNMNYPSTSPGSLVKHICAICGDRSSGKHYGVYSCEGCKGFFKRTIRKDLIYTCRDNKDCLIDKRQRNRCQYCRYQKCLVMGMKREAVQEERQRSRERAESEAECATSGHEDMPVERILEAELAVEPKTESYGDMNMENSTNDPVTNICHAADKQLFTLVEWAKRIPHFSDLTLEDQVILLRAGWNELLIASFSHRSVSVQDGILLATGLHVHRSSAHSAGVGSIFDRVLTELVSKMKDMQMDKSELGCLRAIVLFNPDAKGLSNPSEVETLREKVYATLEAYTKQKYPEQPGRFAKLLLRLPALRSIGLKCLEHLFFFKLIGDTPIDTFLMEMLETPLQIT
Source text: (§1) HEK293T were used for luciferase assays. Cells were transfected using the PolyEthylenImine (PEI) method with human retinoid-X receptor (RXRγ) and human liver-X-receptors (LXRα or LXRβ) with LXRE-Luc; RXRγ and human farnesoid X receptor (FXR) with EcRE-Luc; RXRγ and human steroid and xenobiotic X receptor (SXR) with DR4-Luc; RXRγ and human peroxisome proliferator activated receptors (PPARα, or PPARγ) with PPRE-Luc; RXRγ and human retinoic acid receptor (RARα) with DR1-Luc; human AHR and human ARNT with a DRE-Luc; human vitamin D receptor (VDR) with VDRE-Luc. Cells were transfected with plasmids encoding human glucocorticoid receptor (GR), progesterone receptor (PR), or androgen receptor (AR) with MMTV-Luc; or estrogen receptors (ERα and ERβ) with an ERE-Luc. The day after transfection with the luciferase reporter gene construct, cells were seeded in 12-well plates (50,000 cells per well). After 6 h, cells were then treated with the following ligands dissolved in ethanol: 10 nM estradiol (E2) for ERα and ERβ; 10 nM R1881 for AR; 10 nM R5020 for PR; 10 nM dexamethasone for GR; 10 µM fenofibrate for PPARα; 100 nM rosiglitazone (BRL 49653) for PPARγ; 100 nM cis-retinoic acid (cRA) for RAR; 10 nM dioxine for AHR, 10 µM rifampicine for SXR and 10 µM 22(R) hydroxycholesterol (22(R)HC) for LXRα and LXRβ. At the end of each treatment, cells were lysed in 100 μl lysis buffer (Promega). Luciferase activity was measured using the luciferase assay reagent (Promega), according to the manufacturer’s instructions. Protein concentrations were measured using the Bradford method to normalize luciferase activities. For each condition, luciferase activity was calculated from the data of three independent wells.

B16F10 cells = assay: DDA-induced cytotoxicity (cell death); type: cell-based
Experimental: (§2) Melanoma cells were seeded into 6-well plates at 60,000 cells per well and AML cells at 250,000 cells/ml. The cells were then treated with control solvent vehicle (1/1000 ethanol in water) or DDA. Where indicated, treated cells were incubated in the presence or absence of each inhibitor for time shown. Cell death was determined by the trypan blue exclusion assay. Cells were scraped and resuspended in trypan blue solution (0.25% (w/v) in PBS) and counted in a Malassez cell under light microscopy. Cell viability was then quantified by counting viable (trypan blue-negative) and dead cells (trypan blue-positive).
(§3) Supplementary Fig. 1. a DDA inhibited m elanom a colony form ation. Melanom a cells were […]
(§4) a 0.5% solution of crystal violet in water and analyzed by microscopy. Images are representative of 5 independent experiments. b Evaluation of DDA-induced cytotoxicity (cytotox) and clonogenicity (clono) inhibition in a subset of human (H) and mouse (M) m elanom a cell lines. T he BRaf status in m elanom a cells lines is shown. […]

SKMEL-28 cells = assay: DDA-induced cytotoxicity (cell death); type: cell-based
Experimental: as §2, §3, §4

[2] = molecular target: T2, human liver-X-receptor LXRβ (Homo sapiens, UniProt P55055); assay: LXRE-luciferase gene reporter assay in HEK293T, LXRβ; type: cell-based; conditions: DDA analogs
T2 construct: expressed in transfected cells; host or cells: HEK293T
Source text: as §1, with “After 6 h, cells were then treated with the following ligands dissolved in ethanol: 10 nM estradiol (E2) for ERα and ERβ; 10 nM R1881 for AR; 10 nM R5020 for PR; 10 nM dexamethasone for GR; 10 µM fenofibrate for PPARα; 100 nM rosiglitazone (BRL 49653) for PPARγ; 100 nM cis-retinoic acid (cRA) for RAR; 10 nM dioxine for AHR, 10 µM rifampicine for SXR and 10 µM 22(R) hydroxycholesterol (22(R)HC) for LXRα and LXRβ. At the end of each treatment, cells were lysed in 100 μl lysis buffer (Promega).” left out

T2 sequence (P55055 whole entry, one chain of several): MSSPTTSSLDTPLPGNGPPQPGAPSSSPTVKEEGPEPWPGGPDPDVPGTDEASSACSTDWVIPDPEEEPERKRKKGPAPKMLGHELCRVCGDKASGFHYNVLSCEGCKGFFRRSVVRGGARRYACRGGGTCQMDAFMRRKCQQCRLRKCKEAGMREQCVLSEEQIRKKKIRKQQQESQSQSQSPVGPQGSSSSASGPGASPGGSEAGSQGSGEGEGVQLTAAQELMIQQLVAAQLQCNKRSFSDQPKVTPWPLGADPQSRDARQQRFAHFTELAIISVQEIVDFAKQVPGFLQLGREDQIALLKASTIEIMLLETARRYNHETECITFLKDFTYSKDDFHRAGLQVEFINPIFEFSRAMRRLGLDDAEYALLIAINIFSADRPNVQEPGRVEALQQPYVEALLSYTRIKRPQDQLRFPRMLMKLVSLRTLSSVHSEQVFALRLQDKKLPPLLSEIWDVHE

Row | Compound | cleaved PARP, densitometry (AML cells) | cleaved casp 3, densitometry (AML cells) | LXRα-dependent agonistic or antagonistic activity [1] | cytotoxicity and clonogenicity inhibition (B16F10 cells) | cytotoxicity and clonogenicity inhibition (SKMEL-28 cells) | LXRβ-dependent agonistic or antagonistic activity [2]
1 | COC(=O)C[C@H](NC(=O)[C@H](C)NC(=O)[C@@H](NC(=O)OCc1ccccc1)C(C)C)C(=O)CF [z-VAD-fmk, reference compound] (Cbz-Val-Ala-Asp(OMe)-CH2F) | 0.6 | 0.4 |  |  |  | 
2 | CC(C)CCCC(C)C1CCC2C3CC(n4cncc4CCN)C4(O)CC(O)CCC4(C)C3CCC12C (stereo not shown) [C17] |  |  | switch from antagonist to agonist activity | inactive | inactive | 
3 | CC(C)CCCC(C)C1CCC2C3C[C@@H](NCCO)[C@@]4(O)C[C@@H](O)CC[C@]4(C)C3CC[C@]12C (stereo partly shown) [C41] |  |  | switch from antagonist to agonist activity |  |  | antagonist-agonist switch
